From the supplement of paper PMC13380429

Experiments:
Details in all cases: 72 h
[1] = tested on: Calu-3; assay: cell viability relative to DMSO; higher = less toxic
[2] = tested on: U2OS; assay: as above
[3] = tested on: Caco-2; assay: as above
[4] = tested on: Vero E6; assay: as above
[5] = tested on: HepG2; assay: as above
[6] = tested on: Calu-3; assay: relative viability EC50 (midpoint between 100% and the lowest measured viability); higher = less toxic
[7] = tested on: U2OS; assay: as above
[8] = tested on: Caco-2; assay: as above
[9] = tested on: Vero E6; assay: as above
[10] = tested on: HepG2; assay: as above
[11] = tested on: Calu-3; assay: drug sensitivity score (DSS) for viability; higher = more toxic; extreme values may be limits of the assay
[12] = tested on: U2OS; assay: as above
[13] = tested on: Caco-2; assay: as above
[14] = tested on: Vero E6; assay: as above
[15] = tested on: HepG2; assay: as above

Structure (SMILES)	cell viability ([1]; 1 nM) [%]	cell viability ([1]; 10 nM) [%]	cell viability ([1]; 100 nM) [%]	cell viability ([1]; 1000 nM) [%]	cell viability ([1]; 10000 nM) [%]	cell viability ([2]; 1 nM) [%]	cell viability ([2]; 10 nM) [%]	cell viability ([2]; 100 nM) [%]	cell viability ([2]; 1000 nM) [%]	cell viability ([2]; 10000 nM) [%]	cell viability ([3]; 1 nM) [%]	cell viability ([3]; 10 nM) [%]	cell viability ([3]; 100 nM) [%]	cell viability ([3]; 1000 nM) [%]	cell viability ([3]; 10000 nM) [%]	cell viability ([4]; 1 nM) [%]	cell viability ([4]; 10 nM) [%]	cell viability ([4]; 100 nM) [%]	cell viability ([4]; 1000 nM) [%]	cell viability ([4]; 10000 nM) [%]	cell viability ([5]; 1 nM) [%]	cell viability ([5]; 10 nM) [%]	cell viability ([5]; 100 nM) [%]	cell viability ([5]; 1000 nM) [%]	cell viability ([5]; 10000 nM) [%]	relative viability EC50 [6] [µM]	relative viability EC50 [7] [µM]	relative viability EC50 [8] [µM]	relative viability EC50 [9] [µM]	relative viability EC50 [10] [µM]	drug sensitivity score [11]	drug sensitivity score [12]	drug sensitivity score [13]	drug sensitivity score [14]	drug sensitivity score [15]
CCCCN1CCC(CCC(=O)c2cc(Cl)c(N)cc2OC)CC1	101	99.5	101	98.3	109	104	93.6	95.8	92.7	94.1	104	100	97.3	92.7	95.2	101	102	99.2	101	94.1	95.5	98.2	96.9	82.8	83.5	> 10	> 10	> 10	> 10	> 10	0	0	0	0	2.4
CCCCCCC(=O)OC1CC(C)(C)NC(C)(C)C1 [TMPH]	102	89.7	96	108	98.7	99.7	101	98.9	99.6	99.1	106	99.4	99.3	103	102	99	96.4	101	95.2	98.4	109	93.5	99.5	92.9	106	> 10	> 10	> 10	> 10	> 10	0	0	0	0	0
C[n+]1cccc(C(=O)[O-])c1 [trigonelline]	102	103	105	103	95.7	104	95.5	96.5	101	97.4	96.8	83.1	92.9	94	99.3	99.6	82.5	106	102	76.6	89.2	95.9	91.8	82.9	90.5	> 10	> 10	> 10	> 10	> 10	0	0	0	0.7	0
O[C@@H](CN1CCC(Cc2ccc(F)cc2)CC1)c1ccc(Cl)cc1 (racemic) [eliprodil]	99.2	95.2	106	92.3	104	91.1	93.3	87.3	87.9	97.6	100	96.2	101	103	104	98.8	92	98.8	98.1	105	96.6	99.7	97.8	87.6	108	> 10	> 10	> 10	> 10	> 10	0	0	0	0	0
C=CC(=O)Nc1cc(Nc2nccc(-c3c[nH]c4ccccc34)n2)c(OC)cc1N(C)CCN(C)C [AZ5104]	82.8	56.2	32.5	33.3	17.4	104	95.2	95.4	59.6	8.6	89.1	87.6	81.7	62.1	24.3	88.8	93.8	61.6	49.7	0.2	98.2	94.2	84.2	64	9.2	0.0093	1.13	0.563	0.397	1.19	27.9	9.8	10.3	15.6	9.3
CC[N+](CC)(CC)CC(=O)Nc1c(C)cccc1C [QX-314]	102	93.6	89.1	96.9	89.2	103	96.9	102	95.7	101	91.8	93.4	97	102	95.6	95.9	99.2	93.7	97.8	93.6	95.3	104	92.6	94.4	95.7	> 10	> 10	> 10	> 10	> 10	0	0	0	0	0
C/C=C(/C(=C/C)c1ccc(O)cc1)c1ccc(O)cc1 [dienestrol]	98.1	91.4	92.4	84	95.7	106	108	107	99.9	109	112	96.5	105	106	102	101	107	101	104	94.3	101	100	98.4	110	95.3	> 10	> 10	> 10	> 10	> 10	0	0	0	0	0
